Experimental data: US8497285B2, “Therapy of autoimmune colitis using a TIP60 inhibitor” (The Trustees Of The University Of Pennsylvania, priority 2010, dated 2013)

Legend:
[1] = tested on: Treg suppression of T cell proliferation; assay: Treg suppression assay (CFSE T cell proliferation, 3 days, varying Treg:T cell ratios); assay type: cell-based; details: for suppression of Treg in vitro: 500x dilution of 10 mM, 20 micromolar, FIG. 10; for T cell proliferation (percentage of proliferated cells): Treg:Teff=1:1
From the text: FIG. 8. are flow cytometry dataplots showing the enhancement of TIP60 inhibitor B7 suppression of Treg in vitro. Individual peaks reflect number of cells divisions under the standard test conditions (3 days), where the cell populations are dyed with CFSE (carboxyfluorescen diacetate, succimidyl ester). FIG. 8A are the data for DMSO without B7; FIG. 8B are the data for B7-1000×; FIG. 8C are the data for B7-4000×; and FIG. 8D are the data for B7-8000. In each case, the 1000×/4000×/8000× refers to the dilution factor of the B7, from an original 10 mM solution of B7; e.g, 1000× represents a solution diluted by a factor of 1000, so as to result in a 10 micromolar solution. The numbers in the upper left corner of the plot (e.g., 88, 81, 74, 65, and 37 of FIG. 8A) refer to the measured percentage of proliferated cells.
FIG. 10. are flow cytometry dataplots showing the enhancement of TIP60 inhibitors B7 suppression of Treg in vitro. FIG. 10A are the data for DMSO without any B7-type inhibitor; FIG. 10B are the data for B7-500×; FIG. 10C are the data for B7A-500×; FIG. 10D are the data for B7B-500; and FIG. 10D are the data for B7C-500×. In each case, the 500× refers to the dilution factor of the B7/B7A/B7B/B7C, from an original 10 mM solution of the compound; e.g, 500× represents a solution diluted by a factor of 500, so as to result in a 20 micromolar solution.
Several exemplary compounds of the present invention were screened at 10 μg/ml in vitro, at varying Treg:T cell ratios, using standard cell proliferation techniques (3 days, using CSFE dyes). Such techniques are well understood by those skilled in the art. For example, see Akimova T, Ge G, Golovina T, Mikheeva T, Wang L, Riley J L, Hancock W W., “Histone/protein deacetylase inhibitors increase suppressive functions of human FOXP3+ Tregs,” Clin Immunol. 2010 September; 136(3):348-63; Tao R, Hancock W W., Resistance of FOXP3+ regulatory T cells to Nur77-induced apoptosis promotes allograft survival,” PLoS One. 2008 May 28; 3(5):e2321; Tao R, Wang L, Murphy K M, Fraser C C, Hancock W W., “Regulatory T cell expression of herpesvirus entry mediator suppresses the function of B and T lymphocyte attenuator-positive effector T cells.,” J. Immunol. 2008 May 15; 180(10):6649-55; and Tao R, de Zoeten E F, Ozkaynak E, Chen C, Wang L, Porrett P M, Li B, Turka L A, Olson E N, Greene M I, Wells A D, Hancock W W., “Deacetylase inhibition promotes the generation and function of regulatory T cells,” Nat. Med. 2007 November; 13(11):1299-307 for the protocols used herein. Each of these references is incorporated by reference herein, at least for this purpose.
T cell proliferation was unimpaired in the absence of Treg cells (see left panels in FIG. 8A-D), but was increasingly impaired at increasing Treg concentration (for example, in FIG. 8A, increasing Treg:Tcell ratio from 0:1 to 1:1 reduced proliferation from 88% to 37% under otherwise identical conditions). […] Efficacy was also seen at 1 μg/ml for some compounds.

FOXP3 = FOXP3 bound on chromatin in SZ-4 T cells (Western blot); assay type: cell-based; details: FIG. 9
TIP60 = biological target: T1, TIP60 (Homo sapiens, UniProt Q92993); assay: TIP60 activity by acetylation of TIP60 or its substrate FOXP3 in transfected 293T cells (Ac-K immunoprecipitation, Western blot); assay type: cell-based; details: 4 hours
T1 construct: expressed in transfected cells; host or cells: 293T cells
T1 sequence (Q92993 whole entry, species assumed): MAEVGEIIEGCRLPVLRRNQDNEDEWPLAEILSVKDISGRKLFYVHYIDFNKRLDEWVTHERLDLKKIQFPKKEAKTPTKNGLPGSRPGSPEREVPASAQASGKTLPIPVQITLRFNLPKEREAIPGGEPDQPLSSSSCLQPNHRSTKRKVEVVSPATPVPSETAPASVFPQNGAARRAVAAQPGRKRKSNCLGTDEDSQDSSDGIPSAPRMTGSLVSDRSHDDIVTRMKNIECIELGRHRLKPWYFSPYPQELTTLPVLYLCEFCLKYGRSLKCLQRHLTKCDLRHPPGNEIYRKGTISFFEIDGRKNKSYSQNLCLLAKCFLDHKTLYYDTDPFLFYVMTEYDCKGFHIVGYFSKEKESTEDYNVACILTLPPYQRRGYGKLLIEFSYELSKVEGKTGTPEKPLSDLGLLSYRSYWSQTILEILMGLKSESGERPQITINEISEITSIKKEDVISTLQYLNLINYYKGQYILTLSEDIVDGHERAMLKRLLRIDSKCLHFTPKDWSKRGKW
Protocol: FIG. 11 illustrate the effect of B7G on TIP60. TIP60 activity was assessed by examining acetylation of TIP60 or its substrate FOXP3. Both TIP60 and FOXP3 were overexpressed in 293T cells. Acetylated proteins were first immunoprecipitated with the acetyl-lysine specific antibody Ac-K and then blotted with HRP conjugated antibodies to expression tags (HA for FOXP3 or FLAG for TIP60).
TIP60 is known to have acetyl transferase activity to acetylate itself (auto-acetylation) or substrates including FOXP3. To examine activity of B7G on TIP60, 293T cells were transfected with Flag-tagged TIP60 and HA-tagged FOXP3. 24 hours after transfection, cells were treated with various concentrations of B7G for 4 hours before cell lysates were collected. Acetylated proteins were precipitated by anti-acetyl lysine antibody Ac-K. FOXP3 and TIP60 in the lysate or precipitated by Ac-K antibody were identified by anti-HA-HRP and anti-FLAG-HRP respectively.

[2] = tested on: dextran sodium sulfate (DSS) colitis; assay: DSS model of colitis, reversal of established colitis; assay type: in vivo, mice
Protocol: FIG. 12A-C are the results of experiments described in Example 5. […] FIG. 12C provide graphical data for weight loss, bleeding score, and stool consistency (i.e., higher score reflects higher levels of diarrhea), wherein the mice were first subjected to DSS irritation, then subset populations were remedially treated after 8 days with the compound having Structure B7.
In a first test, the effects of exposure to dextran sodium sulfate (DSS) were evaluated, which results in a partially CD4-dependent inflammatory model of colitis, in wildtype (WT) versus TIP60dn C57BL/6 mice (8 mice/group).
Data were also generated using the compound of Structure B7 in the DSS model, in an experiment designed to test the ability of TIP60 inhibitor therapy to reverse established colitis by waiting until mice had ˜15% weight loss. In marked contrast to use of carrier DMSO alone, TIP60 inhibitor therapy (2 mg/kg/d, i.p.) reversed weight loss (p<0.01), blood in the stool (p<0.01) and diarrhea (p<0.005) (see FIG. 12C) and maintained colon length (p<0.01).

[3] = 2 mg/kg/d i.p., vs carrier DMSO, p<0.01

`O=C(Nc1ccc(Cl)cc1)C1CC(=O)N(CCc2ccc(Cl)cc2)C1` (stereo not drawn) [Compound B7A] was tested. Which “suppression of Treg in vitro” value [1] did it give?
Its value is “enhancement”.

`COc1ccc(NC(=O)C2CC(=O)N(CCc3ccc(Cl)cc3)C2)cc1` (stereo not drawn) [Compound B7B] was tested. Which “suppression of Treg in vitro” value [1] did it give?
The value was “enhancement”.

What does the source list for `Cc1ccc2cc(NC(=O)C3CC(=O)N(CCc4ccc(Cl)cc4)C3)ccc2n1` (stereo not drawn) [Compound B7C]?
suppression of Treg in vitro [1]: enhancement; FOXP3 bound on chromatin (FOXP3): intervening with FOXP3 bound on chromatin

With `COc1ccc(CCN2CC(C(=O)Nc3ccc(F)c(Cl)c3)CC2=O)cc1OC` (stereo not drawn) [Compound B7G] as the molecule, how does the “Acetylated FOXP3” value (TIP60; 32 μg/ml) read?
The value was “reduced significantly”.

And the “Acetylated TIP60” value (TIP60; 32 μg/ml)?
The value was “reduced significantly”.

And the TIP60 auto-acetylation (TIP60; lower concentration)?
Its TIP60 auto-acetylation is “slightly increase”.

And the “TIP60 expression level in total cell lysate” value (TIP60; various concentrations, FLAG-HRP)?
Its value is “not significantly affected”.

And the “FOXP3 expression level in total cell lysate” value (TIP60; various concentrations, HA-HRP)?
Its value is “not significantly affected”.

What does the source list for `Cc1ccc(NC(=O)C2CC(=O)N(CCc3ccc(Cl)cc3)C2)cc1` (stereo not drawn) [Compound B7]?
weight loss ([2]; 2 mg/kg/d i.p., started at ~15% weight loss, vs carrier DMSO, p<0.01): reversed; diarrhea ([2]; 2 mg/kg/d i.p., vs carrier DMSO, p<0.005): reversed; blood in the stool [2, 3]: reversed; colon length [2, 3]: maintained; colon length relative to unstressed control animal ([2]; single animal, 3% DSS then B7): about 94%; spleen size relative to control ([2]; single animal, 3% DSS then B7): comparable in size to that of the control; suppression of Treg in vitro [1]: enhancement; Treg activity (decreasing T cell proliferation) ([1]; B7 2.5 to 10 μM, dose dependent): enhanced the Treg activity; T cell proliferation in the absence of Treg cells ([1]; Treg:T cell 0:1, FIG. 8A-D left panels): unimpaired; T cell proliferation (percentage of proliferated cells) ([1]; highest B7 dose 10 μM (FIG. 8B, 1000x dilution)): 25%; T cell proliferation (percentage of proliferated cells) ([1]; intermediate B7 dose (FIG. 8C, 4000x dilution of 10 mM)): 30%; T cell proliferation (percentage of proliferated cells) ([1]; lowest B7 dose (FIG. 8D, 8000x dilution of 10 mM; text: 2.5 μM)): 37%
